Experimental data reported in the METLIN SMRT retention time set (Domingo-Almenara et al. 2019).

Test: gradient 5% acetonitrile 3 min, to 50% in 2 min, to 85% in 15 min, held 3 min, 100 µL/min
Details: column: Zorbax Extend-C18 2.1 x 50 mm; eluents: water / acetonitrile, 0.1% formic acid
Method in brief: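 A Zorbax Extend-C18 column (2.1 × 50 mm, 1.8 μm) run at 100 μL/min with water and acetonitrile, both containing 0.1% formic acid, separated mixtures of ~100 pure standards. The HPLC was coupled to a quadrupole time-of-flight mass spectrometer operated in positive and negative ionization mode, with dead and dwell volumes of 40 μL and 900 μL. Each retention time was taken from a computationally picked adduct peak that was then manually inspected.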

RP-LC retention time | Compound
823 s | CC1(C(=O)NC2CCCC2)Cn2cnc(C(=O)NCCCc3ccccc3)c2C(=O)N1C1CC1 (centres undefined)
1160 s | COC(=O)c1cc(C2CC2)nc2c1c(=O)n(Cc1cccc(Cl)c1)c(=O)n2C
867 s | CCOC(=O)CNC(=O)Nc1cccc(-c2nnc(Cc3ccc(C)cc3)o2)c1
1030 s | Cc1ccc(-c2nnc(-c3cccc(S(=O)(=O)NC(C)(C)C)c3)o2)cc1
1170 s | CCc1ccc(S(=O)(=O)c2cnc(N3CCc4ccccc4C3)nc2N)cc1
858 s | Cn1ncc2c(N3CCN(c4ccccc4F)CC3)ncnc21
710 s | CCS(=O)(=O)N(C)C1CCc2nn(Cc3ccccc3)c(=O)n2CC1 (centres undefined)
559 s | Cc1noc(C)c1CC(=O)NCc1nnc2n1CCCC2
652 s | CCOC(=O)C1CCN(C(=O)Cn2nc3c(N4CCCCCC4)nccn3c2=O)CC1
829 s | Cc1ccc(CNC(=O)C2(C)CN(S(C)(=O)=O)CC(=O)N2c2cc(Cl)ccc2C)cc1 (centres undefined)
1220 s | CC(C)(C)c1csc(-c2csc(S(=O)(=O)Nc3ccc(F)cc3)c2)n1
695 s | CCn1cnc(S(=O)(=O)N2CCC(C(=O)Nc3cccc(Cl)c3)CC2)c1
924 s | O=C(CCC1CCCCC1)NC1CCN(c2ccc(=O)n(CC3CC3)n2)CC1
870 s | CCCc1ccc(S(=O)(=O)N2CCC3(CC2)NCCN=C3NCc2cccc(C)c2)cc1
663 s | COc1cccc(CC(=O)N2CCC(c3cc(N)on3)CC2)c1
1240 s | CCC1CN(S(=O)(=O)c2cc(-c3cc(C)no3)cs2)c2cc(Cl)ccc2O1 (centres undefined)
663 s | N#Cc1cnc2nc(-c3ccccc3)nn2c1N
1030 s | CC1CCN(c2cncnc2-n2cc(NC(=O)CC3CCCCC3)cn2)CC1
800 s | CCC(C)NC(=O)Cn1c(=O)n(-c2cc(OC)cc(OC)c2)c(=O)c2ccccc21 (centres undefined)
780 s | CCn1nc(C)c2ccnc(N3CCC(C(=O)N4CCN(c5ccc(Cl)cc5)CC4)CC3)c21
885 s | Cc1ccccc1Cn1c(CN2CCC(C(=O)NC3CCCCCC3)CC2)cc2ccccc21
1220 s | COc1ccc(-n2c(=O)c(C(=O)NC(C)c3ccc(F)cc3)c(O)c3cccnc32)cc1 (centres undefined)
874 s | CCCCCOC(=O)Nc1nc(=O)n(C2OC(C)C(O)C2O)cc1F (centres undefined)

RP-LC retention time | Compound
743 s | COc1cccc(N2CCN(C(=O)c3cn(-c4ccc(NC(=O)C5CC5)cn4)cn3)CC2)c1
1300 s | COc1ccccc1N1CCN(S(=O)(=O)c2cc(-c3nc(C(C)C)cs3)cs2)CC1
585 s | CN1CCN(c2nc(C(=O)NC3CCCC3)cs2)CC1
631 s | Cn1cc(CN2CCC(C(=O)N3CCCC3)CC2)c2cc(Cl)ccc21
583 s | COc1ccc(CN2CCC3(CC2)CC(C)(O)CCO3)cc1OC (centres undefined)
635 s | Cc1cc(=O)n(CC(=O)Nc2ccc(F)cc2)c(N2CCCCC2)n1
787 s | CC(C)C(=O)Nc1nc(-c2ccc3c(c2)N(C)C(=O)CO3)cs1
684 s | CCn1c(SC)nnc1-c1nn(C)c2c1CN(C(=O)c1cccn1C)CC2
487 s | CC1(C)CCC=[N+]1[O-]
861 s | COc1ccc(S(=O)(=O)N2C[C@@H]3C[C@H]2C[C@@H]3NC(=O)c2ccccc2)cc1Cl
942 s | CCOc1ccc(N2C(=O)CC(c3ccc(OC)cc3)CC2=O)cc1
792 s | CC(C)S(=O)(=O)c1cc2c(cc1NC(=O)c1c(F)cccc1F)n(C)c(=O)n2C
551 s | CCN1CCN(CCNC(=O)C2CCCN(S(=O)(=O)N(C)c3ccc(F)cc3)C2)CC1 (centres undefined)
931 s | CCCn1cc(CCNS(=O)(=O)c2ccc(F)c(Cl)c2)c2cccnc21
1010 s | COC(=O)C1=C(C)N(C(C)C)C(=O)C1(NC(=O)c1ccccc1OC)C(F)(F)F (centres undefined)
762 s | O=C(NCC1CC1)c1cn(-c2ccc(S(=O)(=O)N3CCCC3)cn2)cn1
911 s | CCc1ccc(S(=O)(=O)N(C)CC2CCOCC2)cc1
878 s | O=C(Cc1ccc2c(c1)OCO2)Nc1nc2c(s1)Cc1ccccc1-2
899 s | Cc1cc(F)ccc1NC(=O)c1sc(-c2cn(C)c3ncccc23)nc1C
766 s | Cc1ccc(Sc2nccnc2N2CCCC(C(=O)NCc3ccccn3)C2)cc1 (centres undefined)
735 s | COc1ncc(C(=O)N2CCN(c3ccc(F)cc3)CC2)cn1
862 s | COc1cccc(N2CCN(c3ccnc(SCC(=O)NCCC4=CCCCC4)n3)CC2)c1
626 s | COCc1c(C(=O)O)nnn1-c1ccc(OC)c(OC)c1

RP-LC retention time | Compound
979 s | O=c1c2ccc(Cl)cc2oc2cc(O)cc(O)c12
686 s | CCc1nccn1Cc1nc(-c2cccc(C(F)(F)F)c2)no1
797 s | COc1ccc(S(=O)(=O)Nc2cc(-c3cn4ccccc4n3)ccc2C)cc1
629 s | COCC(C)(O)CNC(=O)C(=O)Nc1ccccc1C#N (centres undefined)
670 s | O=C(NCc1ccccc1C(F)(F)F)C1CCN(c2cc(N3CCOCC3)ncn2)CC1
900 s | CC(C)n1c(=O)sc2cc(S(=O)(=O)N3CCC(C(=O)N4CCCCC4)CC3)ccc21
817 s | O=C(N1CCC(Cc2nc(C3CCOCC3)no2)CC1)C1(c2ccccc2)CC1
1100 s | Cc1cc(C#N)cc(C)c1Oc1nc(Nc2ccc(C#N)cc2)nc(N)c1Br
1050 s | Cc1ccc2c(c1)c1c(n2CC(O)Cn2nc(C)cc2C)CCCC1 (centres undefined)
598 s | CCOC(=O)c1c(CN(C)C)n(C)c2cc(C#N)c(O)cc12
594 s | Cc1ccc(NC(=O)C2CC(=O)N(c3n[nH]c4ccccc34)C2)nc1 (centres undefined)
623 s | Cc1nc2ccc(NC(=O)c3cccnc3)cc2c(=O)n1-c1ccc(F)cc1
661 s | O=C(CN1C(=O)CSc2ccc(C(=O)N3CCCC3)cc21)N1CCN(c2ncccn2)CC1
902 s | O=C(NCc1ccccc1)C1CCCN(c2nc3ccsc3c(=O)n2Cc2ccccc2)C1 (centres undefined)
1150 s | CCc1nc2cc(-c3noc(Cc4c(F)cccc4Cl)n3)ccc2o1
1010 s | Cc1cc2nn(CC(=O)Nc3ccc(C)c(C)c3)c(=O)n2c(N2CCCC2)n1
952 s | CCn1cc(-c2ccc(OC)cc2)cc1C(=O)N1CCCC1
868 s | COc1ccc(C(=O)N2CCc3ccc(C(=O)Nc4ccc5c(c4)OCCO5)cc32)cc1
1100 s | O=C(Nc1ccc(F)c(F)c1)c1cccn1Cc1noc(-c2ccccc2)n1
735 s | CCCN(C)c1nccn2c(=O)n(CC(=O)Nc3ccc(Cl)cc3F)nc12
1040 s | CC(C)Cn1c(=O)c2ccccc2n(Cc2nc(-c3ccccc3)no2)c1=O
733 s | CCCc1noc(-c2cccnc2N2CCCN(Cc3cc(F)cc(F)c3)CC2)n1
768 s | CCC(C(=O)NCC1CCCO1)n1c2ccccc2c2cnn(C)c(=O)c21 (centres undefined)

RP-LC retention time | Compound
980 s | O=C(CN1C(=O)C2CCCCN2c2ccc(S(=O)(=O)N3CCCCC3)cc21)NC1CCCC1 (centres undefined)
1300 s | Cc1ccc(-c2nc(NC(=O)/C=C/c3ccc(Cl)cc3)sc2C)cc1
722 s | Cc1cccc(Cn2c(=O)n(CCNC(=O)c3cnccn3)c3ncccc32)c1
983 s | COc1ccc(-c2nnc(Cc3nc(-c4cccc(C)c4)no3)o2)cc1OC
1110 s | O=S(=O)(c1ccc(-c2cc(C(F)(F)F)on2)o1)N1CCCCC1
808 s | COc1ccccc1CN1CCc2nc(N3CCN(c4ccccc4F)CC3)ncc2C1
766 s | C=CCNC(=O)C1CCCN(C(=O)Nc2ccc(NC(=O)Nc3ccc(C)c(C)c3)cc2)C1 (centres undefined)
784 s | COc1ccc(-c2nc3cnccn3c2Nc2c(C)cccc2C)cc1OC
1040 s | CCOc1cccc(-c2noc(Cn3c(=O)n(-c4cccc(F)c4)c(=O)c4sccc43)n2)c1
874 s | COc1ccc(NC(=O)N2CCCC(C)(C(=O)NCc3ccc(C)cc3)C2)cc1 (centres undefined)
646 s | COc1ccc(CNC(=O)Cc2nnc(-c3ccc4ncccc4c3)o2)cc1OC
1020 s | CCOC(=O)C1=C(CN(C)c2ccccc2)NC(=O)NC1c1ccc(C)cc1 (centres undefined)
828 s | CCOc1ccccc1CNC(=O)C1CCCN(c2ccc(=O)n(-c3ccc(C)c(Cl)c3)n2)C1 (centres undefined)
750 s | Cc1cccc2nc(-c3ccc(Cl)cc3)c(Nc3ccc4c(c3)OCO4)n12
619 s | COc1ccc(CN2CCc3nc(N4CCCC4)ncc3C2)c(OC)c1
600 s | O=C([C@@H]1C[C@H](Oc2cccnc2)CN1C(=O)CC1CCCC1)N1CCCC1
710 s | CC1=C(C(=O)N2CCOCC2)C(c2ccc(Cl)cc2)C2=C(CC(C)(C)CC2=O)N1 (centres undefined)
795 s | O=C1COc2cc(S(=O)(=O)N3CCCC3C(=O)N3CCc4ccccc43)c(Cl)cc2N1 (centres undefined)
657 s | Cc1cc(=O)n(CC(=O)N(C)c2ccccc2)c(N2CCOCC2)n1
758 s | CCn1cc(C)c(C(=O)O)c1CC(=O)NCc1ccc(SC)cc1
